This is an account of results in ChEMBL document CHEMBL1909046, “DrugMatrix in vitro pharmacology data”.

Assay [1] concerns the target Sodium-dependent noradrenaline transporter (Homo sapiens, UniProt P23975). Nature of the assay: DRUGMATRIX: Norepinephrine Transporter radioligand binding (ligand: [125I] RTI-55). Format: cell membranes, MDCK, Membrane. Particulars: mdck; Not Active = under 50% inhibition at 10 µM.
In assay [2] the target is C-C chemokine receptor type 5 (Homo sapiens, UniProt P51681). It counts as cell membranes, Membrane. Particulars: hek293. Note: in other assays of this panel Not Active means under 50% inhibition at 10 µM.
C-C chemokine receptor type 5, sequence (P51681 whole entry): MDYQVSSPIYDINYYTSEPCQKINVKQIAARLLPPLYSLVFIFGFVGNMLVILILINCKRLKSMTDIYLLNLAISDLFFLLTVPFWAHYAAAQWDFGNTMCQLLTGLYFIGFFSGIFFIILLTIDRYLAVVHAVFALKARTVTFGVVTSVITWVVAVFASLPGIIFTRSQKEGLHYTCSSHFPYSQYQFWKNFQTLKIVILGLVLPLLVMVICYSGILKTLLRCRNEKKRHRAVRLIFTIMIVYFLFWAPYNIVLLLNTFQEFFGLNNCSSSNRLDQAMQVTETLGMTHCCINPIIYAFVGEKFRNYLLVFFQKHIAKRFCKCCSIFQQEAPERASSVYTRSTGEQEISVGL
The nature of assay [3]: DRUGMATRIX: GABAA, Flunitrazepam, Central radioligand binding (ligand: [3H] Flunitrazepam). The following applies: Not Active = under 50% inhibition at 10 µM. Format: cell membranes, Rattus norvegicus, Wistar, Brain, Membrane.
For a further assay, the target named is Cannabinoid receptor 1 (Homo sapiens, UniProt P21554). Format: cell membranes, Chem-1, Membrane. The following applies: chem-1. Note: in other assays of this panel Not Active means under 50% inhibition at 10 µM.
Cannabinoid receptor 1, sequence (P21554 whole entry): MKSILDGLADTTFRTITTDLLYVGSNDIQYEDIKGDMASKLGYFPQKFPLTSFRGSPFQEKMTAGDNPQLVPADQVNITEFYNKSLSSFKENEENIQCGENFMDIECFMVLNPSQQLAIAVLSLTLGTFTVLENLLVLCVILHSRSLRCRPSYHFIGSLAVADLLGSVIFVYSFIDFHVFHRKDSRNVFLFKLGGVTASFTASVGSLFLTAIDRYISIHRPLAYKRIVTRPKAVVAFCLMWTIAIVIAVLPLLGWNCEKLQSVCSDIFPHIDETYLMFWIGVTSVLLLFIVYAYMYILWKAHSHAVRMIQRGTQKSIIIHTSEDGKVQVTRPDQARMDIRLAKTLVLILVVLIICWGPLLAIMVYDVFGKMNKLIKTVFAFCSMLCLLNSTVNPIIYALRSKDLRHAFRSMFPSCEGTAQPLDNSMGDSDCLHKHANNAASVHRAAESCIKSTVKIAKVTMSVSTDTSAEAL
Assay [4] addresses T1, Alpha-1A adrenergic receptor (Rattus norvegicus, UniProt P43140).
T1 sequence (P43140 whole entry): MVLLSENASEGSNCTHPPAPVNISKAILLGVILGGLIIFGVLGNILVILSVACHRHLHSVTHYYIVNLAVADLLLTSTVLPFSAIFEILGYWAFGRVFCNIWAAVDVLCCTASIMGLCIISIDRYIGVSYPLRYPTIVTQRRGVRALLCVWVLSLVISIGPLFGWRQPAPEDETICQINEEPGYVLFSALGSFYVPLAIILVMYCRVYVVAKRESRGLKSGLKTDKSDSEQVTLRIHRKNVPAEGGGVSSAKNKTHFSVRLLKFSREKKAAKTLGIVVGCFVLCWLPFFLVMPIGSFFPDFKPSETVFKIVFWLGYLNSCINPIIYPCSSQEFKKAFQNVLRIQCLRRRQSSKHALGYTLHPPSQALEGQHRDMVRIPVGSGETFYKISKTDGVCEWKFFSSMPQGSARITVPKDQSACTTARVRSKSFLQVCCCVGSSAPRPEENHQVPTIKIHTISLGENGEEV
In words: DRUGMATRIX: Alpha-1A adrenergic receptor radioligand binding (ligand: prazosin). The following applies: Not Active = under 50% inhibition at 10 µM; for pIC50: read-out: IC50; for pKi: read-out: Ki. Format: cell membranes, Wistar, Submaxillary gland, Membrane.

For assay [5], the target named is T2, C-X-C chemokine receptor type 1 (Homo sapiens, UniProt P25024). Note: in other assays of this panel Not Active means under 50% inhibition at 10 µM.
T2 sequence (P25024 whole entry): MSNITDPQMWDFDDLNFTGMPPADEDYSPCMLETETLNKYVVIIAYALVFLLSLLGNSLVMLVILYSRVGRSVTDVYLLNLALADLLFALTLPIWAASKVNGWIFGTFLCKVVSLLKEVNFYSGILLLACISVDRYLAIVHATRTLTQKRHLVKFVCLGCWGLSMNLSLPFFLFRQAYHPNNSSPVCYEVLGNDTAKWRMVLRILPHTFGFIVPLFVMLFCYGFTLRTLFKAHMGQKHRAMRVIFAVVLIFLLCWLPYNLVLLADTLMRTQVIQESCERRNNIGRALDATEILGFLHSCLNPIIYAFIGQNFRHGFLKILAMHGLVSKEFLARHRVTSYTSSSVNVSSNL

pIC50, pKi: −log10 of the molar value.

Sodium-dependent noradrenaline transporter, sequence (P23975 whole entry): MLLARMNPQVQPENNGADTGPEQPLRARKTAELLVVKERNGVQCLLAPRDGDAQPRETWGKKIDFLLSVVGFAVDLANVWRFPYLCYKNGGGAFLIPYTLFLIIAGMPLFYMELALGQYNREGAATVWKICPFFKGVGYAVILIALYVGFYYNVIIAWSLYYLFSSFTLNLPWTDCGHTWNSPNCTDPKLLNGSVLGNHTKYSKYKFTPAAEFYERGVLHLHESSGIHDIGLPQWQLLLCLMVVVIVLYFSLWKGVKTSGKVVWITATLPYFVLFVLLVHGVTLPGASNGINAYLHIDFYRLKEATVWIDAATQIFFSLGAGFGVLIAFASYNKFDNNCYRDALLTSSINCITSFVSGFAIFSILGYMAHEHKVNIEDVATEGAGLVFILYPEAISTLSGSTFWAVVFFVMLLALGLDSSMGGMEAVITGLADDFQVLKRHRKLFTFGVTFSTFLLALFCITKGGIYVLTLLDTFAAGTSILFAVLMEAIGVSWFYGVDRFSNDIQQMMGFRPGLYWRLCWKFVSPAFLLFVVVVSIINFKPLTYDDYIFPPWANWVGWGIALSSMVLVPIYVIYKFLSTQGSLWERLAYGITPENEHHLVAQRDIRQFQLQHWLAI

With `COc1ccc(C2C(=O)c3ccccc3C2=O)cc1` [ANISINDIONE], the IC50 entry (in assay [1]; in assay [2]; in assay [3]; on Cannabinoid receptor 1; in assay [4]; in assay [5]) was “Not Active” each time. For the same molecule, the Ki entry in assay [3] is given as “Not Active”.
As for `CC[C@H](C)[C@H]1O[C@]2(C=C[C@@H]1C)C[C@@H]1C[C@@H](C/C=C(\C)[C@@H](O[C@H]3C[C@H](OC)[C@@H](O[C@H]4C[C@H](OC)[C@@H](O)[C@H](C)O4)[C@H](C)O3)[C@@H](C)/C=C/C=C3\CO[C@@H]4[C@H](O)C(C)=C[C@@H](C(=O)O1)[C@]34O)O2.CO[C@H]1C[C@H](O[C@H]2[C@H](C)O[C@@H](O[C@@H]3/C(C)=C/C[C@@H]4C[C@@H](C[C@]5(C=C[C@H](C)[C@@H](C(C)C)O5)O4)OC(=O)[C@@H]4C=C(C)[C@@H](O)[C@H]5OC/C(=C\C=C\[C@@H]3C)[C@]54O)C[C@@H]2OC)O[C@@H](C)[C@@H]1O` [ABAMECTIN], the IC50 entry (in assay [1]; in assay [2]; in assay [3]; on Cannabinoid receptor 1; in assay [4]; in assay [5]) was “Not Active” throughout. Further, the Ki result in assay [3] is listed as “Not Active”.
For `CN/C(=N\CCSCc1nc[nH]c1C)NC#N` [CIMETIDINE], the IC50 result (in assay [1]; in assay [2]; in assay [3]; against Cannabinoid receptor 1; in assay [4]; in assay [5]) was “Not Active” each time. For the same molecule, the Ki result in assay [3] is reported as “Not Active”.
For NYSTATIN, the IC50 entry (in assay [1]; in assay [2]; in assay [3]; against Cannabinoid receptor 1; in assay [4]; in assay [5]) was “Not Active” each time. For the same molecule, the Ki result (in assay [1]; in assay [2]; in assay [3]; at Cannabinoid receptor 1; in assay [4]; in assay [5]) was “Not Active” each time.
As for `CCCNCC(O)COc1ccccc1C(=O)CCc1ccccc1` (stereo not drawn) [PROPAFENONE], the IC50 entry (in assay [2]; in assay [3]; against Cannabinoid receptor 1; in assay [5]) was “Not Active” throughout. Also, the Ki entry in assay [3] was “Not Active”. Further, the pIC50 – broadly, the negative decadic logarithm of the IC50, by convention in mol/L – in assay [4] is 5.21. Also, in assay [4], the negative logarithm of the Ki (pKi) – broadly, the Ki on a negative log10 scale, so that one unit is a factor of ten – is 5.60.
Regarding `COC(=O)Nc1nc2ccc([S+]([O-])c3ccccc3)cc2[nH]1` (stereo not drawn) [OXFENDAZOLE], the IC50 result (in assay [1]; in assay [2]; in assay [3]; against Cannabinoid receptor 1; in assay [4]; in assay [5]) was “Not Active” each time. Further, the Ki entry in assay [3] is reported as “Not Active”.
As to `CCC1(C)CC(=O)NC1=O` (stereo not drawn) [ETHOSUXIMIDE], the IC50 entry (in assay [1]; in assay [2]; in assay [3]; against Cannabinoid receptor 1; in assay [4]; in assay [5]) was “Not Active” throughout. Moreover, in assay [3], the Ki result is on record as “Not Active”.
As for `Brc1c(NC2=NCCN2)ccc2nccnc12` [BRIMONIDINE], the IC50 entry (in assay [1]; in assay [2]; in assay [3]; against Cannabinoid receptor 1; in assay [5]) was “Not Active” throughout. In addition, the Ki entry in assay [3] was “Not Active”. In assay [4], the pIC50 is 5.20. Moreover, the pKi in assay [4] is 5.59.
In the case of `CC[C@H]1CN2CCc3cc(OC)c(OC)cc3[C@@H]2C[C@@H]1C[C@H]1NCCc2cc(OC)c(OC)cc21` [EMETINE], the IC50 result (in assay [1]; in assay [2]; in assay [3]; against Cannabinoid receptor 1; in assay [5]) was “Not Active” in each case. Also, the Ki entry in assay [3] is “Not Active”. The negative-log IC50 (pIC50) in assay [4] was 5.19. In addition, in assay [4], the negative logarithm of the Ki (pKi) is 5.58.
On to `COc1cc([C@@H]2c3cc4c(cc3[C@@H](O[C@@H]3O[C@@H]5CO[C@@H](C)O[C@H]5[C@H](O)[C@H]3O)[C@H]3COC(=O)[C@H]23)OCO4)cc(OC)c1O` [ETOPOSIDE], for which the IC50 entry (in assay [1]; in assay [2]; in assay [3]; on Cannabinoid receptor 1; in assay [4]; in assay [5]) was “Not Active” each time. For the same molecule, the Ki entry in assay [3] is recorded as “Not Active”.
For the molecule `COC(=O)CCc1ccc(OCC(O)CNC(C)C)cc1` (stereo not drawn) [ESMOLOL], the IC50 entry (in assay [1]; in assay [2]; in assay [3]; against Cannabinoid receptor 1; in assay [4]; in assay [5]) was “Not Active” in each case. In assay [3], the Ki result was “Not Active”.
On to `COc1ccc(C(=O)N2CCCC2=O)cc1`, for which the IC50 result (in assay [1]; in assay [2]; in assay [3]; at Cannabinoid receptor 1; in assay [4]; in assay [5]) was “Not Active” in each case. In addition, the Ki entry in assay [3] is reported as “Not Active”.
As to `O=C(O)CCNC(=O)c1ccccc1` [BETAMIPRON], the IC50 entry (in assay [1]; in assay [2]; in assay [3]; at Cannabinoid receptor 1; in assay [4]; in assay [5]) was “Not Active” throughout. The Ki entry in assay [3] is “Not Active”.
For the molecule `O=c1cnn([C@@H]2O[C@H](CO)[C@@H](O)[C@H]2O)c(=O)[nH]1` [6-AZAURIDINE], the IC50 entry (in assay [1]; in assay [2]; in assay [3]; on Cannabinoid receptor 1; in assay [4]; in assay [5]) was “Not Active” each time. In assay [3], the Ki entry is on record as “Not Active”.
For `Cc1c(OCC(F)(F)F)ccnc1C[S+]([O-])c1nc2ccccc2[nH]1` (stereo not drawn) [LANSOPRAZOLE], the IC50 entry (in assay [1]; in assay [2]; in assay [3]; at Cannabinoid receptor 1; in assay [4]; in assay [5]) was “Not Active” throughout. Also, the Ki entry in assay [3] was “Not Active”.
For `C[C@@H]1C[C@H]2[C@@H]3CCC4=CC(=O)C=C[C@]4(C)[C@@]3(F)[C@@H](O)C[C@]2(C)[C@H]1C(=O)CO` [DESOXIMETASONE], the IC50 result (in assay [1]; in assay [2]; in assay [3]; against Cannabinoid receptor 1; in assay [4]; in assay [5]) was “Not Active” throughout. Further, the Ki result in assay [3] is recorded as “Not Active”.
On to `O=C(c1ccccc1C(F)(F)F)N1CCC(Cc2ccccc2)CC1`, for which the IC50 result (in assay [1]; in assay [2]; in assay [3]; against Cannabinoid receptor 1; in assay [4]; in assay [5]) was “Not Active” throughout. Besides, in assay [3], the Ki entry is recorded as “Not Active”.
Turning to `COc1cc2nc(N3CCN(C(=O)c4ccco4)CC3)nc(N)c2cc1OC` [PRAZOSIN], the IC50 entry (in assay [1]; in assay [2]; in assay [3]; on Cannabinoid receptor 1; in assay [5]) was “Not Active” in each case. In assay [3], the Ki result is “Not Active”.
`CC1(C)S[C@@H]2[C@H](NC(=O)[C@H](N)c3ccccc3)C(=O)N2[C@H]1C(=O)O` [AMPICILLIN]: the IC50 entry (in assay [2]; in assay [3]; on Cannabinoid receptor 1; in assay [4]; in assay [5]) was “Not Active” each time. In addition, in assay [3], the Ki result is “Not Active”.
